Columns and labels:
[1] = tested on: NADPH: ferricytochrome C (P-450) reductase (E.C. 1.6.2.4); experiment: Activity of NADPH: ferricytochrome C (P-450) reductase in liver after treatment; type: in vivo, Female Hann.-Wistar rats; details: 24 h after single 40 mg/kg. oral dose; control 4868 ± 296.2 = 100 ± 6.1%
Description: (§1) To evaluate the enzyme inducing activity of the compounds of formula (I) the activity of the polysubstrate monooxygenase enzyme system of the liver, after treatment with placebo and the test compounds, respectively, was also tested. Female Hann.-Wistar rats weighing 50-60 g. each were administered a single 40 mg/kg. dose of the test compounds orally. 24 hours after treatment the animals were decapitated and their livers were eliminated. […] The cytochrome P-450 concentration was determined on the basis of the carbon monoxide differential spectrum of a reduced microsome suspension (Omura T. et al.: J. Biol. Chem. 239, 2370 (1964)). The quantity of cytochrome b-5 was determined from a NaDH differential spectrum (Raw J. et al.: J. Biol. Chem., 234, 1867 (1959)); the activity of NADPH: ferricytochrome C (P-450) reductase (E.C. 1.6.2.4) was measured by the method of Williams C. […] The activity of the aniline hydroxylase from the velocity of the p-amino-phenol formation was determined by the method of R. S. et al.: Toxicol. […] Pharmacol., 22, 50 (1972), while the aminopyrine-demethylase activity was measured by the quantity of the formaldehyde formed, using the method developed by Gourlay G. K. et al.: Biochem. Pharmacol., 27, 965 (1978). The protein content was determined using the method by Lowry O. H. et al.: J. Biochem., 193, 265 (1951). […]

[2] = tested on: hexabarbital oxidase; experiment: Hexabarbital sleeping time (hexabarbital oxidase activity in vivo); set-up: species or system Hann.-Wistar rats; details: hexabarbital sodium 60 mg./kg. i.v., x ± S.E.; for Hexabarbital sleeping time in %-age of the control, 1 h: 1 h after single 40 mg./kg. oral dose; for Hexabarbital sleeping time in %-age of the control, 24 h: 24 h after single 40 mg./kg. oral dose
Description: The enzyme inducing activity was tested by the following methods: The change of hexabarbital oxidase activity was measured on Hann.-Wistar rats weighing 50-60 g. which were administered single 40 mg./kg. doses of the test compounds orally. One and 24 hours after treatment the animals were anaesthetized by a 60 mg./kg. i.v. dose of hexabarbital sodium, and the sleeping time, i.e. the time between the loss of righting reflex and full awakeness was measured (Noordhoex J.: Eur. J. Pharmacol., 3, 242, 1968). As a reference compound phenobarbital was used. The average of the groups and the standard error were determined. The results are given in Table 1, expressed in % of the control.

[3] = tested on: cytochrome P-450; experiment: Cytochrome P-450 concentration in liver after treatment; type: in vivo, Female Hann.-Wistar rats; details: 24 h after single 40 mg/kg. oral dose; control 12.8 ± 0.63 = 100 ± 4.9%
Description: as §1

[4] = tested on: aminopyrine demethylase; experiment: Aminopyrine demethylase activity in liver after treatment; type: in vivo, Female Hann.-Wistar rats; details: 24 h after single 40 mg/kg. oral dose; control 254.8 ± 7.47 = 100 ± 2.9%
Description: as §1

[5] = tested on: Hann.-Wistar rats; experiment: Acute toxicity, oral; type: in vivo; details: 500 mg./kg. p.o. single dose; 14 days observation
Description: (§2) The acute toxicity of the compounds of formula (I) was determined on Hann.-Wistar rats selected from both sexes, weighing 160-180 g. each. The test compounds were administered in a single 500 mg./kg. oral dose. […] The results are set forth in the following Table 3, in which the percentage of the dead animals is indicated.

[6] = tested on: aniline hydroxylase; experiment: Aniline hydroxylase activity in liver after treatment; type: in vivo, Female Hann.-Wistar rats; details: 24 h after single 40 mg/kg. oral dose; control 20.3 ± 0.88 = 100 ± 4.3%
Description: as §1

[7] = Microsomal protein content of liver after treatment (Lowry); type: in vivo, Female Hann.-Wistar rats; details: 24 h after single 40 mg/kg. oral dose; control 29.3 ± 1.01 = 100 ± 3.4%
Description: as §1

[8] = tested on: cytochrome b-5; experiment: Quantity of cytochrome b-5 in liver after treatment; type: in vivo, Female Hann.-Wistar rats; details: 24 h after single 40 mg/kg. oral dose; control 8.6 ± 0.43 = 100 ± 5.0%
Description: as §1

[9] = Relative weight of liver after treatment; type: in vivo, Female Hann.-Wistar rats; details: 24 h after single 40 mg/kg. oral dose; control 4.3 ± 0.17 = 100 ± 3.9%
Description: as §1

[10] = CNS activity (electroshock, metrazole, thiosemicarbazide, strichnine, nicotine spasm, rotating rod, physostigmine lethality, yohimbine potentiation, analgesia); details: oral, already at 40 mg./kg.; in words
Description: The compounds of the formula (I) and phenobarbital were administered orally, in a dose of 40 mg./kg. and 80 mg./kg.

[11] = Acute toxicity, oral; type: in vivo, Hann.-Wistar rats; details: rat, in vivo, po
Description: as §2

SMILES | C(P-450) reductase (nmoles/g. of liver/min.), % of the control [1] [%] | Hexabarbital sleeping time in %-age of the control, 1 h [2] | Hexabarbital sleeping time in %-age of the control, 24 h [2] | cytochrome P-450 (nmoles/g. of liver), % of the control [3] [%] | aminopyrine demethylase (nmoles/g. of liver/min.), % of the control [4] [%] | Dead animals (%) [5] | aniline hydroxylase (nmoles/g. of liver/min.), % of the control [6] [%] | microsomal protein (mg./g. of liver), % of the control [7] [%] | cytochrome b-5 (nmoles/g. of liver), % of the control [8] [%] | relative weight of liver (g./100 g. of body weight), % of the control [9] [%] | CNS activity (anticonvulsive, muscle coordinating, sedative) [10] | mortality at 336 h ([11]; 500 mg./kg. p.o. single dose, 14 days observation, read-out: Dead animals (%)) [%] | LD50 ([11]; footnote to Table 3) [mg/kg]
CCN(CC)C(=O)COc1ccccc1C(O)(CC)c1cccc(Cl)c1 (stereo not shown) [Compound D, 1-(3-chlorophenyl)-1-[2-(diethylcarbamoylmethoxy)-phenyl]-propane-1-ol] | 144 ± 11.9 | 139 ± 14.4 % of the control | 50 ± 3.0 % of the control | 199 ± 17.7 | 129 ± 6.0 | .phi. | 189 ± 12.3 | 120 ± 6.7 | 122 ± 6.3 | 107 ± 4.4 |  |  | 
CCC(O)(c1ccc(F)cc1)c1ccccc1OCc1ccccc1 (stereo not shown) [A, 1-(4-fluorophenyl)-1-(2-benzyloxyphenyl)-propane-1-ol] | 155 ± 6.9 | 95 ± 20.2 % of the control | 46 ± 3.5 % of the control | 170 ± 8.8 | 150 ± 11.1 | .phi. | 168 ± 8.9 | 109 ± 3.8 | 124 ± 3.8 | 109 ± 2.5 |  |  | 
CCC(O)(c1cc(C)ccc1C)c1ccccc1OCc1ccccc1 (stereo not shown) [B, 1-(2,5-dimethylphenyl)-1-(2-benzyloxyphenyl)-propane-1-ol] |  | 119 ± 7.7 % of the control | 58 ± 8.0 % of the control |  |  | .phi. |  |  |  |  |  |  | 
CCN(CC)C(=O)COc1ccc(C(O)(CC)c2cccc(C(F)(F)F)c2)cc1 (stereo not shown) [C, 1-(3-trifluoromethylphenyl)-1-[4-(diethylcarbamoylmethoxy)-phenyl]-propane-1-ol] |  | 170 ± 10.0 % of the control | 44 ± 2.0 % of the control |  |  | .phi. |  |  |  |  |  |  | 
CCOC(=O)COc1ccccc1C(O)(CC)c1cccc(Cl)c1 (stereo not shown) [E, 1-(3-chlorophenyl)-1-[2-(ethoxycarbonylmethoxy)-phenyl]propane-1-ol] |  | 117 ± 1.1 % of the control | 58 ± 2.4 % of the control |  |  | .phi. |  |  |  |  |  |  | 
CCC1(c2ccccc2)C(=O)NC(=O)NC1=O [phenobarbital, reference compound] |  | 250 ± 15.8 % of the control | 60 ± 7.3 % of the control |  |  |  |  |  |  |  | significant anticonvulsive muscle coordinating and sedative effect | 100 | 254

— patent US4605785A, “1,1-diphenylpropanol derivatives, process for their preparation and pharmaceutical compositions containing them” (Richter Gedeon Vegyeszeti Gyar RT, priority 1982, dated 1986)
